Measurements reported in patent US7348402B2, “Antimicrobial peptide, its analogs and antimicrobial composition comprising them” (priority 2002, dated 2008).
No end group written: not given here.

Experiments:
Assay type in all cases: cell-based
[1] = system: Saccharomyces cerevisiae (ATCC 44774); details: ATCC 44774, 12 h
Excerpt: (§1) The microorganisms used in the present invention include Gram-positive bacteria such as Bacillus subtilis (ATCC 62037), Staphylococcus aureus (ATCC 15752) and Streptococcus mutans (ATCC 25175), Gram-negative bacteria such as Escherichia coli (ATCC 27325), Salmonella enteritidis (ATCC 15277) and Pseudomonas putida (ATCC 17426) and fungi such as Candida albicans (ATCC 10231), Saccharomyces cerevisiae (ATCC 44774) and Cryptococcus neoformans (ATCC 34881), obtained from American Type Culture Collection (ATCC).
(§2) The antimicrobial activity of the peptides prepared in Example 1 was determined against microorganisms by 96-well microdilution minimal inhibitory concentration assay. After overnight culturing the bacteria and fungi in trypticase soy broth (TSB) and Saboraud (SAB) at 37° C. and 30° C., respectively, they were inoculated in new media and cultured for 2 hours to exponential growth phase. After diluting the microorganisms to 10^5 per 1 ml, 190 μl was inoculated in each 96-well plate, and 10 μl of serially diluted peptides were added in each well.

[2] = system: Streptococcus mutans (ATCC 25175); details: ATCC 25175, 12 h
Excerpt: as §1, §2

[3] = system: Pseudomonas putida (ATCC 17426); details: ATCC 17426, 12 h
Excerpt: as §1, §2

[4] = system: Salmonella enteritidis (ATCC 15277); details: ATCC 15277, 12 h
Excerpt: as §1, §2

[5] = system: Escherichia coli (ATCC 27325); details: ATCC 27325, 12 h
Excerpt: as §1, §2

[6] = system: Bacillus subtilis (ATCC 62037); details: ATCC 62037, 12 h
Excerpt: as §1, §2

[7] = system: Cryptococcus neoformans (ATCC 34881); details: ATCC 34881, 12 h
Excerpt: as §1, §2

[8] = system: Staphylococcus aureus (ATCC 15752); details: ATCC 15752, 12 h
Excerpt: as §1, §2

[9] = system: Candida albicans (ATCC 10231); details: ATCC 10231, 12 h
Excerpt: as §1, §2

KVLRKVLRKVLRNWPIGKVLR [compound 65]
Minimum Inhibitory Concentration [1]: 1 µg/mL | Minimum Inhibitory Concentration [2]: 2 µg/mL | Minimum Inhibitory Concentration [3]: 1 µg/mL | Minimum Inhibitory Concentration [4]: 2 µg/mL | Minimum Inhibitory Concentration [5]: 1 µg/mL | Minimum Inhibitory Concentration [6]: 2 µg/mL | Minimum Inhibitory Concentration [7]: 1 µg/mL | Minimum Inhibitory Concentration [8]: 1 µg/mL | Minimum Inhibitory Concentration [9]: 1 µg/mL

KVLRKVLRKVLRQWPIGKVLR-NH2 [compound 71]
Minimum Inhibitory Concentration [1]: 2 µg/mL | Minimum Inhibitory Concentration [2]: 1 µg/mL | Minimum Inhibitory Concentration [3]: 1 µg/mL | Minimum Inhibitory Concentration [4]: 1 µg/mL | Minimum Inhibitory Concentration [5]: 1 µg/mL | Minimum Inhibitory Concentration [6]: 1 µg/mL | Minimum Inhibitory Concentration [7]: 1 µg/mL | Minimum Inhibitory Concentration [8]: 1 µg/mL | Minimum Inhibitory Concentration [9]: 1 µg/mL

KVLRNWPIGKVLRKVLRKVLR [compound 31]
Minimum Inhibitory Concentration [1]: 2 µg/mL | Minimum Inhibitory Concentration [2]: 2 µg/mL | Minimum Inhibitory Concentration [3]: 1 µg/mL | Minimum Inhibitory Concentration [4]: 1 µg/mL | Minimum Inhibitory Concentration [5]: 1 µg/mL | Minimum Inhibitory Concentration [6]: 1 µg/mL | Minimum Inhibitory Concentration [7]: 1 µg/mL | Minimum Inhibitory Concentration [8]: 1 µg/mL | Minimum Inhibitory Concentration [9]: 1 µg/mL

KVVKKVVKKVVKNWPIGKVVK [compound 53]
Minimum Inhibitory Concentration [1]: 1 µg/mL | Minimum Inhibitory Concentration [2]: 1 µg/mL | Minimum Inhibitory Concentration [3]: 1 µg/mL | Minimum Inhibitory Concentration [4]: 1 µg/mL | Minimum Inhibitory Concentration [5]: 1 µg/mL | Minimum Inhibitory Concentration [6]: 1 µg/mL | Minimum Inhibitory Concentration [7]: 1 µg/mL | Minimum Inhibitory Concentration [8]: 1 µg/mL | Minimum Inhibitory Concentration [9]: 2 µg/mL

KVVKKVVKKVVKQWPIGKVVK [compound 36]
Minimum Inhibitory Concentration [1]: 2 µg/mL | Minimum Inhibitory Concentration [2]: 2 µg/mL | Minimum Inhibitory Concentration [3]: 1 µg/mL | Minimum Inhibitory Concentration [4]: 1 µg/mL | Minimum Inhibitory Concentration [5]: 2 µg/mL | Minimum Inhibitory Concentration [6]: 1 µg/mL | Minimum Inhibitory Concentration [7]: 1 µg/mL | Minimum Inhibitory Concentration [8]: 1 µg/mL | Minimum Inhibitory Concentration [9]: 2 µg/mL

KVVKNWPIGKVVKKVVKKVVK [compound 19]
Minimum Inhibitory Concentration [1]: 2 µg/mL | Minimum Inhibitory Concentration [2]: 1 µg/mL | Minimum Inhibitory Concentration [3]: 1 µg/mL | Minimum Inhibitory Concentration [4]: 1 µg/mL | Minimum Inhibitory Concentration [5]: 2 µg/mL | Minimum Inhibitory Concentration [6]: 2 µg/mL | Minimum Inhibitory Concentration [7]: 1 µg/mL | Minimum Inhibitory Concentration [8]: 1 µg/mL | Minimum Inhibitory Concentration [9]: 1 µg/mL

KVVKQWPIGKVVKKVVKKVVK [compound 2]
Minimum Inhibitory Concentration [1]: 2 µg/mL | Minimum Inhibitory Concentration [2]: 2 µg/mL | Minimum Inhibitory Concentration [3]: 1 µg/mL | Minimum Inhibitory Concentration [4]: 1 µg/mL | Minimum Inhibitory Concentration [5]: 1 µg/mL | Minimum Inhibitory Concentration [6]: 1 µg/mL | Minimum Inhibitory Concentration [7]: 1 µg/mL | Minimum Inhibitory Concentration [8]: 1 µg/mL | Minimum Inhibitory Concentration [9]: 1 µg/mL

KVVRKVVRKVVRQWPIGKVVR [compound 44]
Minimum Inhibitory Concentration [1]: 1 µg/mL | Minimum Inhibitory Concentration [2]: 2 µg/mL | Minimum Inhibitory Concentration [3]: 1 µg/mL | Minimum Inhibitory Concentration [4]: 1 µg/mL | Minimum Inhibitory Concentration [5]: 1 µg/mL | Minimum Inhibitory Concentration [6]: 2 µg/mL | Minimum Inhibitory Concentration [7]: 1 µg/mL | Minimum Inhibitory Concentration [8]: 1 µg/mL | Minimum Inhibitory Concentration [9]: 2 µg/mL

KVVRQWPIGKVVRKVVRKVVR [compound 10]
Minimum Inhibitory Concentration [1]: 2 µg/mL | Minimum Inhibitory Concentration [2]: 2 µg/mL | Minimum Inhibitory Concentration [3]: 1 µg/mL | Minimum Inhibitory Concentration [4]: 1 µg/mL | Minimum Inhibitory Concentration [5]: 1 µg/mL | Minimum Inhibitory Concentration [6]: 1 µg/mL | Minimum Inhibitory Concentration [7]: 1 µg/mL | Minimum Inhibitory Concentration [8]: 1 µg/mL | Minimum Inhibitory Concentration [9]: 2 µg/mL

RLLKQWPIGRLLKRLLKRLLK [compound 11]
Minimum Inhibitory Concentration [1]: 2 µg/mL | Minimum Inhibitory Concentration [2]: 2 µg/mL | Minimum Inhibitory Concentration [3]: 1 µg/mL | Minimum Inhibitory Concentration [4]: 2 µg/mL | Minimum Inhibitory Concentration [5]: 1 µg/mL | Minimum Inhibitory Concentration [6]: 1 µg/mL | Minimum Inhibitory Concentration [7]: 1 µg/mL | Minimum Inhibitory Concentration [8]: 1 µg/mL | Minimum Inhibitory Concentration [9]: 1 µg/mL

RLLKRLLKRLLKQWPIGRLLK [compound 45]
Minimum Inhibitory Concentration [1]: 2 µg/mL | Minimum Inhibitory Concentration [2]: 1 µg/mL | Minimum Inhibitory Concentration [3]: 1 µg/mL | Minimum Inhibitory Concentration [4]: 2 µg/mL | Minimum Inhibitory Concentration [5]: 1 µg/mL | Minimum Inhibitory Concentration [6]: 1 µg/mL | Minimum Inhibitory Concentration [7]: 2 µg/mL | Minimum Inhibitory Concentration [8]: 1 µg/mL | Minimum Inhibitory Concentration [9]: 2 µg/mL

RLLRNWPIGRLLRRLLRRLLR [compound 20]
Minimum Inhibitory Concentration [1]: 2 µg/mL | Minimum Inhibitory Concentration [2]: 2 µg/mL | Minimum Inhibitory Concentration [3]: 1 µg/mL | Minimum Inhibitory Concentration [4]: 2 µg/mL | Minimum Inhibitory Concentration [5]: 1 µg/mL | Minimum Inhibitory Concentration [6]: 2 µg/mL | Minimum Inhibitory Concentration [7]: 1 µg/mL | Minimum Inhibitory Concentration [8]: 1 µg/mL | Minimum Inhibitory Concentration [9]: 1 µg/mL

RLLRQWPIGRLLRRLLRRLLR [compound 3]
Minimum Inhibitory Concentration [1]: 2 µg/mL | Minimum Inhibitory Concentration [2]: 1 µg/mL | Minimum Inhibitory Concentration [3]: 1 µg/mL | Minimum Inhibitory Concentration [4]: 1 µg/mL | Minimum Inhibitory Concentration [5]: 2 µg/mL | Minimum Inhibitory Concentration [6]: 2 µg/mL | Minimum Inhibitory Concentration [7]: 1 µg/mL | Minimum Inhibitory Concentration [8]: 1 µg/mL | Minimum Inhibitory Concentration [9]: 1 µg/mL

RLLRRLLRRLLRNWPIGRLLR [compound 54]
Minimum Inhibitory Concentration [1]: 2 µg/mL | Minimum Inhibitory Concentration [2]: 2 µg/mL | Minimum Inhibitory Concentration [3]: 1 µg/mL | Minimum Inhibitory Concentration [4]: 1 µg/mL | Minimum Inhibitory Concentration [5]: 2 µg/mL | Minimum Inhibitory Concentration [6]: 1 µg/mL | Minimum Inhibitory Concentration [7]: 1 µg/mL | Minimum Inhibitory Concentration [8]: 1 µg/mL | Minimum Inhibitory Concentration [9]: 1 µg/mL

RLLRRLLRRLLRQWPIGRLLR [compound 37]
Minimum Inhibitory Concentration [1]: 2 µg/mL | Minimum Inhibitory Concentration [2]: 1 µg/mL | Minimum Inhibitory Concentration [3]: 1 µg/mL | Minimum Inhibitory Concentration [4]: 2 µg/mL | Minimum Inhibitory Concentration [5]: 1 µg/mL | Minimum Inhibitory Concentration [6]: 1 µg/mL | Minimum Inhibitory Concentration [7]: 2 µg/mL | Minimum Inhibitory Concentration [8]: 1 µg/mL | Minimum Inhibitory Concentration [9]: 2 µg/mL

RLVKNWPIGRLVKRLVKRLVK [compound 32]
Minimum Inhibitory Concentration [1]: 2 µg/mL | Minimum Inhibitory Concentration [2]: 2 µg/mL | Minimum Inhibitory Concentration [3]: 1 µg/mL | Minimum Inhibitory Concentration [4]: 1 µg/mL | Minimum Inhibitory Concentration [5]: 1 µg/mL | Minimum Inhibitory Concentration [6]: 1 µg/mL | Minimum Inhibitory Concentration [7]: 1 µg/mL | Minimum Inhibitory Concentration [8]: 1 µg/mL | Minimum Inhibitory Concentration [9]: 1 µg/mL

RLVKNWPIGRLVKRLVKRLVK-NH2 [compound 70]
Minimum Inhibitory Concentration [1]: 1 µg/mL | Minimum Inhibitory Concentration [2]: 2 µg/mL | Minimum Inhibitory Concentration [3]: 1 µg/mL | Minimum Inhibitory Concentration [4]: 1 µg/mL | Minimum Inhibitory Concentration [5]: 1 µg/mL | Minimum Inhibitory Concentration [6]: 1 µg/mL | Minimum Inhibitory Concentration [7]: 1 µg/mL | Minimum Inhibitory Concentration [8]: 1 µg/mL | Minimum Inhibitory Concentration [9]: 1 µg/mL

RLVKRLVKRLVKNWPIGRLVK [compound 66]
Minimum Inhibitory Concentration [1]: 2 µg/mL | Minimum Inhibitory Concentration [2]: 2 µg/mL | Minimum Inhibitory Concentration [3]: 1 µg/mL | Minimum Inhibitory Concentration [4]: 1 µg/mL | Minimum Inhibitory Concentration [5]: 2 µg/mL | Minimum Inhibitory Concentration [6]: 1 µg/mL | Minimum Inhibitory Concentration [7]: 1 µg/mL | Minimum Inhibitory Concentration [8]: 1 µg/mL | Minimum Inhibitory Concentration [9]: 1 µg/mL

RLVRNWPIGRLVRRLVRRLVR [compound 24]
Minimum Inhibitory Concentration [1]: 2 µg/mL | Minimum Inhibitory Concentration [2]: 1 µg/mL | Minimum Inhibitory Concentration [3]: 1 µg/mL | Minimum Inhibitory Concentration [4]: 2 µg/mL | Minimum Inhibitory Concentration [5]: 1 µg/mL | Minimum Inhibitory Concentration [6]: 1 µg/mL | Minimum Inhibitory Concentration [7]: 1 µg/mL | Minimum Inhibitory Concentration [8]: 1 µg/mL | Minimum Inhibitory Concentration [9]: 2 µg/mL

RLVRRLVRRLVRNWPIGRLVR [compound 58]
Minimum Inhibitory Concentration [1]: 2 µg/mL | Minimum Inhibitory Concentration [2]: 1 µg/mL | Minimum Inhibitory Concentration [3]: 1 µg/mL | Minimum Inhibitory Concentration [4]: 1 µg/mL | Minimum Inhibitory Concentration [5]: 1 µg/mL | Minimum Inhibitory Concentration [6]: 1 µg/mL | Minimum Inhibitory Concentration [7]: 1 µg/mL | Minimum Inhibitory Concentration [8]: 1 µg/mL | Minimum Inhibitory Concentration [9]: 2 µg/mL
